# Test results: patent US11945836B2, “Compositions and methods for treating CNS disorders” (Sage Therapeutics, Inc., priority 2014, dated 2024)
# Target: rat brain cortical membranes ([35S]-TBPS binding)
# Test: Steroid inhibition of [35S]-TBPS binding (radioligand displacement)
# Settings: 3 nM [35S]-TBPS, in the presence of 5 μM GABA
# Experimental: Steroid Inhibition of TBPS Binding
# TBPS binding assays using rat brain cortical membranes in the presence of 5 μM GABA has been described (Gee et al, J. Pharmacol. Exp. Ther. 1987, 241, 346-353; Hawkinson et al, Mol. Pharmacol. 1994, 46, 977-985; Lewin, A. H et al., Mol. Pharmacol. 1989, 35, 189-194).
# Briefly, cortices are rapidly removed following decapitation of carbon dioxide-anesthetized Sprague-Dawley rats (200-250 g). The cortices are homogenized in 10 volumes of ice-cold 0.32 M sucrose using a glass/teflon homogenizer and centrifuged at 1500×g for 10 min at 4° C. The resultant supernatants are centrifuged at 10,000×g for 20 min at 4° C. to obtain the P2 pellets. The P2 pellets are resuspended in 200 mM NaCl/50 mM Na—K phosphate pH 7.4 buffer and centrifuged at 10,000×g for 10 min at 4° C. This washing procedure is repeated twice and the pellets are resuspended in 10 volumes of buffer. Aliquots (100 uL) of the membrane suspensions are incubated with 3 nM [^35S]-TBPS and 5 μL aliquots of test drug dissolved in dimethyl sulfoxide (DMSO) (final 0.5%) in the presence of 5 μM GABA. The incubation is brought to a final volume of 1.0 mL with buffer. […] Following a 90 min incubation at room temp, the assays are terminated by filtration through glass fiber filters (Schleicher and Schuell No. 32) using a cell harvester (Brandel) and rinsed three times with ice-cold buffer. Filter bound radioactivity is measured by liquid scintillation spectrometry. Non-linear curve fitting of the overall data for each drug averaged for each concentration is done using Prism (GraphPad). […] The concentration of test compound producing 50% inhibition (IC50) of specific binding and the maximal extent of inhibition (Imax) are determined for the individual experiments with the same model used for the overall data and then the means±SEMs of the individual experiments are calculated.
# Various compounds are or can be screened to determine their potential as modulators of [^35S]-TBPS binding in vitro. These assays are or can be performed in accordance with the above discussed procedures.
row,Structure (SMILES),IC50 [nM]
1,C[C@@]1(O)CC[C@H]2[C@H](CC[C@@H]3[C@@H]2CC[C@]2(C)[C@@H](C(=O)c4nccs4)CC[C@@H]32)C1 [Compound 2],> 100
2,C[C@@]1(O)CC[C@H]2[C@H](CC[C@@H]3[C@@H]2CC[C@]2(C)[C@@H](C(=O)c4ccc(Cl)cc4)CC[C@@H]32)C1 [Compound 52],20 to 50
3,Cn1nccc1C(=O)[C@H]1CC[C@H]2[C@@H]3CC[C@@H]4C[C@](C)(O)CC[C@@H]4[C@H]3CC[C@]12C [Compound 9],20 to 50
4,CCc1ccc(C(=O)[C@H]2CC[C@H]3[C@@H]4CC[C@@H]5C[C@](C)(O)CC[C@]5(C)[C@H]4CC[C@]23C)cc1 [Compound 49],< 20
5,COC[C@]12CC[C@@](C)(O)C[C@@H]1CC[C@H]1[C@@H]3CC[C@H](C(=O)c4ccc(OC)cc4C)[C@@]3(C)CC[C@@H]12 [Compound 96],> 100
6,Cc1cc(C(=O)[C@H]2CC[C@H]3[C@@H]4CC[C@@H]5C[C@](C)(O)CC[C@@H]5[C@H]4CC[C@]23C)ccc1F [Compound 26],20 to 50
7,COc1cc(OC)cc(C(=O)[C@H]2CC[C@H]3[C@@H]4CC[C@H]5C[C@](C)(O)CC[C@]5(C)[C@H]4CC[C@]23C)c1 [Compound 13],> 100
8,CN(C)c1ccc(C(=O)[C@H]2CC[C@H]3[C@@H]4CC[C@@H]5C[C@](C)(O)CC[C@@H]5[C@H]4CC[C@]23C)cc1 [Compound 32],20 to 50
9,COc1ccccc1C(=O)[C@H]1CC[C@H]2[C@@H]3CC[C@@H]4C[C@](C)(O)CC[C@]4(C)[C@H]3CC[C@]12C [Compound 53],> 100
10,COc1cccc(C(=O)[C@H]2CC[C@H]3[C@@H]4CC[C@@H]5C[C@](C)(O)CC[C@]5(C)[C@H]4CC[C@]23C)c1 [Compound 63],50 to 100
11,Cc1ccc(C(=O)[C@H]2CC[C@H]3[C@@H]4CC[C@@H]5C[C@](C)(O)CC[C@@H]5[C@H]4CC[C@]23C)cc1F [Compound 41],20 to 50
12,Cc1ccc(C(=O)[C@H]2CC[C@H]3[C@@H]4CC[C@@H]5C[C@](C)(O)CC[C@@H]5[C@H]4CC[C@]23C)cc1 [Compound 86],20 to 50
13,Cc1ccc(C(=O)[C@H]2CC[C@H]3[C@@H]4CC[C@@H]5C[C@](C)(O)CC[C@]5(C)[C@H]4CC[C@]23C)cc1 [Compound 89],50 to 100
14,C[C@@]1(O)CC[C@@]2(C)[C@@H](CC[C@@H]3[C@@H]2CC[C@]2(C)[C@@H](C(=O)c4ccc5ccccc5c4)CC[C@@H]32)C1 [Compound 14],50 to 100
15,Cn1ncc(C(=O)[C@H]2CC[C@H]3[C@@H]4CC[C@@H]5C[C@](C)(O)CC[C@@H]5[C@H]4CC[C@]23C)n1 [Compound 99],> 100
16,COC[C@]12CC[C@@](C)(O)C[C@@H]1CC[C@H]1[C@@H]3CC[C@H](C(=O)c4ccc(N(C)C)cc4)[C@@]3(C)CC[C@@H]12 [Compound 109],> 100
17,CSc1ccc(C(=O)[C@H]2CC[C@H]3[C@@H]4CC[C@@H]5C[C@](C)(O)CC[C@@H]5[C@H]4CC[C@]23C)cc1 [Compound 25],20 to 50
18,Cc1cc(C)cc(C(=O)[C@H]2CC[C@H]3[C@@H]4CC[C@@H]5C[C@](C)(O)CC[C@@H]5[C@H]4CC[C@]23C)c1 [Compound 16],< 20
19,COC[C@]12CC[C@@](C)(O)C[C@@H]1CC[C@H]1[C@@H]3CC[C@H](C(=O)c4ccc5cc(OC)ccc5c4)[C@@]3(C)CC[C@@H]12 [Compound 97],> 100
20,CCc1ccc(C(=O)[C@H]2CC[C@H]3[C@@H]4CC[C@H]5C[C@](C)(O)CC[C@]5(COC)[C@H]4CC[C@]23C)cc1 [Compound 104],> 100
21,Cc1cc(C)cc(C(=O)[C@H]2CC[C@H]3[C@@H]4CC[C@H]5C[C@](C)(O)CC[C@]5(C)[C@H]4CC[C@]23C)c1 [Compound 135],> 100
22,C[C@@]1(O)CC[C@@]2(C)[C@H](CC[C@@H]3[C@@H]2CC[C@]2(C)[C@@H](C(=O)c4ccc5c(c4)OCO5)CC[C@@H]32)C1 [Compound 24],< 20
23,C[C@@]1(O)CC[C@@]2(C)[C@@H](CC[C@@H]3[C@@H]2CC[C@]2(C)[C@@H](C(=O)c4ccc(Cl)cc4)CC[C@@H]32)C1 [Compound 81],> 100
24,Cc1cccc(C(=O)[C@H]2CC[C@H]3[C@@H]4CC[C@@H]5C[C@](C)(O)CC[C@]5(C)[C@H]4CC[C@]23C)c1 [Compound 73],50 to 100
25,Cc1cc(C(=O)[C@H]2CC[C@H]3[C@@H]4CC[C@H]5C[C@](C)(O)CC[C@]5(C)[C@H]4CC[C@]23C)ccc1F [Compound 38],50 to 100

row,Structure (SMILES),IC50 [nM]
1,COC[C@]12CC[C@@](C)(O)C[C@@H]1CC[C@H]1[C@@H]3CC[C@H](C(=O)c4cc(C)cc(C)c4)[C@@]3(C)CC[C@@H]12 [Compound 93],50 to 100
2,COc1ccc(C(=O)[C@H]2CC[C@H]3[C@@H]4CC[C@@H]5C[C@](C)(O)CC[C@@H]5[C@H]4CC[C@]23C)c(C)c1 [Compound 43],20 to 50
3,Cc1cccc(C(=O)[C@H]2CC[C@H]3[C@@H]4CC[C@@H]5C[C@](C)(O)CC[C@@H]5[C@H]4CC[C@]23C)c1 [Compound 74],20 to 50
4,CCc1ccc(C(=O)[C@H]2CC[C@H]3[C@@H]4CC[C@H]5C[C@](C)(O)CC[C@]5(C)[C@H]4CC[C@]23C)cc1 [Compound 134],> 100
5,Cc1ccccc1C(=O)[C@H]1CC[C@H]2[C@@H]3CC[C@@H]4C[C@](C)(O)CC[C@@H]4[C@H]3CC[C@]12C [Compound 64],> 100
6,C[C@@]1(O)CC[C@@]2(C)[C@@H](CC[C@@H]3[C@@H]2CC[C@]2(C)[C@@H](C(=O)c4ccc(OC(F)(F)F)cc4)CC[C@@H]32)C1 [Compound 108],> 100
7,COc1ccc2cc(C(=O)[C@H]3CC[C@H]4[C@@H]5CC[C@@H]6C[C@](C)(O)CC[C@]6(C)[C@H]5CC[C@]34C)ccc2c1 [Compound 85],> 100
8,C[C@@]1(O)CC[C@@]2(C)[C@H](CC[C@@H]3[C@@H]2CC[C@]2(C)[C@@H](C(=O)c4cccc(F)c4)CC[C@@H]32)C1 [Compound 83],20 to 50
9,C[C@@]1(O)CC[C@H]2[C@H](CC[C@@H]3[C@@H]2CC[C@]2(C)[C@@H](C(=O)c4ccc(F)cc4)CC[C@@H]32)C1 [Compound 55],20 to 50
10,C[C@@]1(O)CC[C@H]2[C@H](CC[C@@H]3[C@@H]2CC[C@]2(C)[C@@H](C(=O)c4ccc(-c5ccccc5)cc4)CC[C@@H]32)C1 [Compound 44],50 to 100
11,C[C@@]1(O)CC[C@@]2(C)[C@H](CC[C@@H]3[C@@H]2CC[C@]2(C)[C@@H](C(=O)c4ccc(OC(F)(F)F)cc4)CC[C@@H]32)C1 [Compound 47],20 to 50
12,COc1ccccc1C(=O)[C@H]1CC[C@H]2[C@@H]3CC[C@H]4C[C@](C)(O)CC[C@]4(C)[C@H]3CC[C@]12C [Compound 78],> 100
13,C[C@@]1(O)CC[C@H]2[C@H](CC[C@@H]3[C@@H]2CC[C@]2(C)[C@@H](C(=O)c4cnn[nH]4)CC[C@@H]32)C1 [Compound 98],> 100
14,COc1cccc(C(=O)[C@H]2CC[C@H]3[C@@H]4CC[C@H]5C[C@](C)(O)CC[C@]5(C)[C@H]4CC[C@]23C)c1 [Compound 77],> 100
15,COc1cc(OC)cc(C(=O)[C@H]2CC[C@H]3[C@@H]4CC[C@@H]5C[C@](C)(O)CC[C@@H]5[C@H]4CC[C@]23C)c1 [Compound 130],20 to 50
16,C[C@@]1(O)CC[C@H]2[C@H](CC[C@@H]3[C@@H]2CC[C@]2(C)[C@@H](C(=O)c4ccsc4)CC[C@@H]32)C1 [Compound 10],< 20
17,COC[C@]12CC[C@@](C)(O)C[C@@H]1CC[C@H]1[C@@H]3CC[C@H](C(=O)c4cccc(OC)c4)[C@@]3(C)CC[C@@H]12 [Compound 106],> 100
18,Cc1ccc(C(=O)[C@H]2CC[C@H]3[C@@H]4CC[C@@H]5C[C@](C)(O)CC[C@]5(C)[C@H]4CC[C@]23C)cc1C [Compound 17],50 to 100
19,C[C@@]1(O)CC[C@H]2[C@H](CC[C@@H]3[C@@H]2CC[C@]2(C)[C@@H](C(=O)c4coc5ccccc45)CC[C@@H]32)C1 [Compound 12],20 to 50
20,C[C@@]1(O)CC[C@@]2(C)[C@@H](CC[C@@H]3[C@@H]2CC[C@]2(C)[C@@H](C(=O)c4ccccc4-c4ccccc4)CC[C@@H]32)C1 [Compound 127],> 100
21,COc1ccc(C(=O)[C@H]2CC[C@H]3[C@@H]4CC[C@@H]5C[C@](C)(O)CC[C@]5(C)[C@H]4CC[C@]23C)cc1 [Compound 61],> 100
22,C[C@@]1(O)CC[C@H]2[C@H](CC[C@@H]3[C@@H]2CC[C@]2(C)[C@@H](C(=O)c4cc5ccccc5o4)CC[C@@H]32)C1 [Compound 5],20 to 50
23,C[C@@]1(O)CC[C@H]2[C@H](CC[C@@H]3[C@@H]2CC[C@]2(C)[C@@H](C(=O)c4cccnc4)CC[C@@H]32)C1 [Compound 70],50 to 100
24,Cc1ccc(C(=O)[C@H]2CC[C@H]3[C@@H]4CC[C@@H]5C[C@](C)(O)CC[C@@H]5[C@H]4CC[C@]23C)cc1C [Compound 20],50 to 100
25,COC[C@]12CC[C@@](C)(O)C[C@@H]1CC[C@H]1[C@@H]3CC[C@H](C(=O)c4ccc5c(c4)OCO5)[C@@]3(C)CC[C@@H]12 [Compound 94],50 to 100
